According to patent US7141680B2, “Aromatic compounds possessing antifungal or antibacterial activity” (Genelabs Technologies, Inc., priority 2002, dated 2006):
Structures can show the parent of a compound that is named as a salt.

Assays:
Aspergillus species = experiment: Minimum inhibitory concentration (MIC) assay, filamentous fungi; format: cell-based; conditions: antifungal activity, lowest concentration at which 75% inhibition of growth is observed after 48 h
Procedure: (§1) The assays described below were used to measure the minimum inhibitory concentration (MIC) of a compound necessary to inhibit visible growth of the organism tested. These assays are adapted from NCCLS protocols M7-A4 and M27-A (NCCLS vol 17:9 and vol 17:2) as modified by Sandven, S., Clin. Micro. (1999) 37:12, p. 3856–3859. MIC values for Aspergillus species were determined using NCCLS protocol M38-P.
(§2) All compounds were dissolved in 100% DMSO to a stock concentration of 10 mM and used fresh stock compounds in powder form were kept frozen until needed and used freshly. When used for test purposes, compounds were diluted in the appropriate media depending on the organism being tested.
(§3) For yeast and aspergillus species, seven 1:2 serial dilutions of compound in appropriate media buffered with MOPS at pH 7.0 were prepared such that the final starting test compound concentrations were 44.4 μM for yeast and 50 μM aspergillus species. For bacteria, dilutions were made in growth media used for the particular bacteria being tested.
Inoculums are made by incubating Aspergillus species for 7 days at 35° C. on potato dextrose agar slants. Slants are then covered with 1.0 mL of 0.85% saline, one drop of Tween 20 is added and colonies are teased with a sterile transfer loop to create a suspension which is allowed to sit for 5 min so heavier particles can drop out. The upper suspension is separated and adjusted to an optical density of 0.09 to 0.11. The resulting suspension is diluted 1:50, which yields 2× the final inoculum needed. Micro dilution trays are prepared as with yeast and incubated for 48 h at 35° C. For our purposes the MIC is defined as the lowest compound concentration at which 75% inhibition of growth is observed after 48 h.

bacteria = experiment: Minimum inhibitory concentration (MIC) assay, bacteria; format: cell-based
Procedure: as §1, §2, §3
Five well-separated colonies from a 24 h Sabouraud Dextrose plate incubated at 35° C. were picked and resuspended into 2 mL of normal saline. The O.D.530 was read and the culture was adjusted to 0.5 McFarland units with normal saline. A 1:2000 dilution was made with RPMI 1640 media buffered with MOPS at pH 7.0 and 100 μL of this inoculum preparation was added to an equal volume of test compound-containing media. 25 μL of the redox indicator Alamar Blue (Biosource International) was added to each well and the plates were incubated for 48 h at 35° C. Wells having yeast growth changed color from blue to pink.
Inoculums are made in the same manner as yeast except all dilutions are made in normal saline, with a final dilution of 1:200 and an inoculum of 10 μL.

| SMILES | MIC (Aspergillus species) [µM] | MIC (bacteria) [µM] |
| --- | --- | --- |
| N=C(N)NCCNC(=O)c1cc2cc(NC(=O)c3ccc4[nH]c(C(=O)NCCNC(=N)N)cc4c3)ccc2[nH]1 [Compound 10, 1H-Indole-2,5-dicarboxylic acid 2-[(2-gutanidino-ethyl)-amide] 5-{[2-(2-guanidino-ethylcarbamoyl)-1H-indol-5-yl]-amide}] | ≤ 50 | ≤ 45.5 |
| N=C(N)NCC1CCC(CNC(=O)c2cc3cc(NC(=O)c4ccc5[nH]c(C(=O)NCC6CCC(CNC(=N)N)CC6)cc5c4)ccc3[nH]2)CC1 (stereo not drawn) [Compound 18, 1H-Indole-2,5-dicarboxylic acid 2-[(4-guanidinomethyl-cyclohexylmethyl)-amide] 5-({2-[(4-guanidinomethyl-cyclohexylmethyl)-carbamoyl}-1H-indol-5-yl}-amide)] | ≤ 50 | ≤ 45.5 |
| N=C(N)NCC(O)CNC(=O)c1cc2cc(NC(=O)c3ccc4[nH]c(C(=O)NCC(O)CNC(=N)N)cc4c3)ccc2[nH]1 (stereo not drawn) [Compound 19, 1H-Indole-2,5-dicarboxylic acid 2-[(3-guanidino-2-hydroxy-propyl)-amide] 5-{[2-(3-guanidino-2-hydroxy-propylcarbamoyl)-1H-indol-5-yl]-amide}] | ≤ 50 | ≤ 45.5 |
| N=C(N)NCCCCCNC(=O)c1cc2cc(NC(=O)c3ccc4[nH]c(C(=O)NCCCCCNC(=N)N)cc4c3)ccc2[nH]1 [Compound 20, 1H-Indole-2,5-dicarboxylic acid 2-[(5-guanidino-pentyl)-amide] 5-{[2-(5-guanidino-pentylcarbanzoyl)-1H-indol-5-yl]-amide}] | ≤ 50 | ≤ 45.5 |
| N=C(N)NC1CCC(NC(=O)c2cc3cc(NC(=O)c4ccc5[nH]c(C(=O)NC6CCC(NC(=N)N)CC6)cc5c4)ccc3[nH]2)CC1 (stereo not drawn) [Compound 21, 1H-Indole-2,5-dicarboxylic acid 2-[(4-guanidino-cyclohexyl)-amide] 5-{[2-(4-guaizidino-cyclohexylcarbamoyl)-1H-indol-5-yl]-amide}] | ≤ 50 | ≤ 45.5 |
| N=C(N)NCc1ccc(CNC(=O)c2cc3cc(NC(=O)c4ccc5[nH]c(C(=O)NCc6ccc(CNC(=N)N)cc6)cc5c4)ccc3[nH]2)cc1 [Compound 22, 1H-Indole-2,5-dicarboxylic acid 2-(4-guanidinomethyl-benzylamide) 5-{[2-(4-guanidinomethyl-benzylcarbamoyl)-1H-indol-5-yl]-amide}] | ≤ 50 | ≤ 45.5 |
| CC(C)Cn1cc(NC(=O)c2ccc3[nH]c(C(=O)NCCNC(=N)N)cc3c2)cc1C(=O)NCCNC(=N)N [Compound 29, 1H-indole-2,5-dicarboxylic acid 2-[(2-guanidino-ethyl)-amide] 5-{[5-(2-guanidino-ethylcarbamoyl)-1-isobutyl-1H-pyrrol-3-yl]-amide}] | – | ≤ 45.5 |
| N=C(N)NCCC[C@H](N)C(=O)NCCCNC(=O)c1cc2ccc(NC(=O)c3cc4cc(C(=O)NCCNC(=O)[C@@H](N)CCCNC(=N)N)ccc4[nH]3)cc2[nH]1 [Compound 66, 1H-Indole-2,5-dicarboxylic acid 5-{[2-(2-amino-5-guanidino-pentanoylamino)-ethyl]-amide} 2-({2-[3-(2-amino-5-guanidino-pentanoylamino)-propylcarbamoyl]-1H-indol-6-yl}-amide)] | – | ≤ 45.5 |
| N=C(N)NCCNC(=O)c1ccc(C(=O)Nc2ccc3[nH]c(C(=O)NCCNC(=N)N)cc3c2)cc1 [Compound 70, N-(2-Guanidino-ethyl)-N′-[2-(2-guanidino-ethylcarbamoyl)-1H-indol-5-yl]-terephthalamide] | ≤ 50 | – |
| C/N=C(/NCCNC(=O)c1ccc2[nH]c(C(=O)Nc3ccc4[nH]c(C(=O)NCCN/C(=N/C)SC)cc4c3)cc2c1)SC [Compound 90, 1H-Indole-2,5-dicarboxylic acid 5-{[2-(2,3-dimethylisothioureido)ethyl]amide} 2-({2-[2-(2,3-dimethylisothioureido)ethylcarbamoyl]-1H-indol-5-yl}amide)dihydrochloride] | – | ≤ 45.5 |
| CC(C)(C)OC(=O)NCCNC(=O)c1cc2cc(NC(=O)c3cc4cc(N)ccc4[nH]3)ccc2[nH]1 [Compound 107, [2-({5-[(5-Amino-1H-indole-2-carbonyl)-amino]-1H-indole-2-carbonyl}-amino)-ethyl]-carbamic acid tert-butyl ester] | – | ≤ 45.5 |
| N=C(N)NCCNC(=O)c1cc2cc(NC(=O)c3cc4cc(NC(=O)CNC(=N)N)ccc4o3)ccc2[nH]1 [Compound 135, 5-{[5-(2-guanidino-acetylamino)-benzofuran-2-carbonyl]-amino}-1H-indole-2-carboxylic acid (2-guanidino-ethyl)-amide] | ≤ 50 | – |
| C[n+]1ccccc1NCCNC(=O)c1ccc2[nH]c(C(=O)Nc3ccc4cc(C(=O)NCCNc5cccc[n+]5C)[nH]c4c3)cc2c1 [Compound 170, 1H-Indole-2,5-dicarboxylic acid 5-[(2-(1-methylpyridiniu-2-yl)amino-ethyl)-amide] 2-{[2-(2-(1-methylpyridiniu-2-yl)amino-ethylcarbamoyl)-1H-indol-6-yl]-amide}] | ≤ 50 | – |
| N=C(N)NCNC(=O)c1ccc2[nH]c(C(=O)Nc3ccc4cc(C(=O)NCNC(=N)N)[nH]c4c3)cc2c1 [Compound 173, 1H-Indole-2,5-dicarboxylic acid 5-guanidinomethyl-amide 2-{[2-(guanidinomethyl-carbamoyl)-1H-indol-6-yl]-amide}] | ≤ 50 | – |
| N=C(N)NCCNC(=O)c1ccc2sc(C(=O)Nc3ccc4sc(C(=O)NCCNC(=N)N)cc4c3)cc2c1 [Compound 177, Benzo[b]thiophene-2,5-dicarboxylic acid 5-[(2-guanidino-ethyl)-amide]2-{[2-(2-guanidino-ethylcarbamoyl)-benzo[b]thiophen-5-yl]-amide}] | ≤ 50 | – |
| N=C(N)NCCNC(=O)c1ccc2[nH]c(C(=O)Nc3ccc4cc(C(=O)NCCNC(=N)N)sc4c3)cc2c1 [Compound 178, 1H-Indole-2,5-dicarboxylic acid 5-[(2-guanidino-ethyl)-amide] 2-{[2-(2-guanidino-ethylcarbamoyl)-benzo[b]thiophen-6-yl]-amide}] | ≤ 50 | – |

Second part, led by results:

| MIC (Aspergillus species) [µM] | SMILES | MIC (bacteria) [µM] |
| --- | --- | --- |
| ≤ 50 | CC(=N)NCCNC(=O)c1cc2cc(NC(=O)c3ccc4[nH]c(C(=O)NCCNC(C)=N)cc4c3)ccc2[nH]1 [Compound 9] | – |
| ≤ 50 | N=C(N)NCCNC(=O)c1cc2cc(NC(=O)c3cc4cc(NC(=O)CNC(=N)N)ccc4[nH]3)ccc2[nH]1 [Compound 138, 5-{[5-(2-guanidino-acetylamino)-1H-indole-2-carbonyl]-amino}-1H-indole-2-carboxylic acid (2-guanidino-ethyl)-amide] | – |
| ≤ 50 | N=C(N)NCCNC(=O)c1cc2ccc(NC(=O)c3cc4cc(C(=O)NCNC(=N)N)ccc4[nH]3)cc2[nH]1 [Compound 172, 1H-Indole-2,5-dicarboxylic acid 2-{[2-(2-guanidino-ethylcarbamoyl)-1H-indol-6-yl]-amide} 5-guanidinomethyl-amide] | – |
| ≤ 50 | N=C(N)NCCNC(=O)c1ccc2[nH]c(C(=O)Nc3ccc4[nH]c(C(=O)NCCNC(=N)N)nc4c3)cc2c1 [Compound 175, 1H-Indole-2,5-dicarboxylic acid 5-[(2-guanidino-ethyl)-amide] 2-{[2-(2-guanidino-ethylcarbamoyl)-1H-benzoimidazol-5-yl]-amide)] | – |
| ≤ 50 | CN(CCNC(=N)N)C(=O)c1ccc2[nH]c(C(=O)Nc3ccc4cc(C(=O)NCCNC(=N)N)[nH]c4c3)cc2c1 [Compound 176, 1H-Indole-2,5-dicarboxylic acid 2-{[2-(2-guanidino-ethylcarbamoyl)-1H-indol-6-yl]-amide} 5-[(2-guanidino-ethyl)-methyl-amide]] | – |
| ≤ 50 | CNCCNC(=O)c1cc2ccc(NC(=O)c3cc4cc(C(=O)NCCNC(=N)N)ccc4[nH]3)cc2[nH]1 [Compound 182, 1H-Indole-2,5-dicarboxylic acid 5-[(2-guanidinoethyl)amide] 2-{[2-(2-methylaminoethylcarbamoyl)-1H-indol-6-yl]amide}] | – |
| ≤ 50 | CN(C)CCNC(=O)c1cc2ccc(NC(=O)c3cc4cc(C(=O)NCCNC(=N)N)ccc4[nH]3)cc2[nH]1 [Compound 183, 1H-Indole-2,5-dicarboxylic acid 2-{[2-(2-dimethylaminoethylcarbamoyl)-1H-indol-6-yl]amide} 5-[(2-guanidinoethyl)amide]] | – |
| ≤ 50 | N#C/N=C(/N)NCCNC(=O)c1cc2ccc(NC(=O)c3cc4cc(C(=O)NCCNC(=N)N)ccc4[nH]3)cc2[nH]1 [Compound 184, 1H-Indole-2,5-dicarboxylic acid 5-{[2-(guanidino)ethyl]amide} 2-({2-[2-(N′-cyanoguanidino)ethylcarbamoyl]-1H-indol-6-yl}amide)] | – |
